In a melting point compilation (Tetko et al.; mined from patent text by program, amines drawn as free bases though some values may be those of a salt):

Point of comparison: `CC(C)(C)OC(=O)NCC(=O)NCCCN1CCN(CCCNc2cccc3c2C(=O)c2ccccc2C3=O)CC1`, melting point 118 °C. Against it:
- Cc1c(O)cccc1C(=O)N[C@@H](Cc1ccccc1)[C@H](O)C(=O)N1CSC(C)(C)[C@H]1C(=O)NCc1ccc(N)cc1 — lower, 107 to 109 °C
- COc1cc(OC)nc(NC(=O)NS(=O)(=O)c2ccccc2CCOC(C)=O)n1 — higher, 160 to 162 °C
- Clc1ccc(-c2nc(COc3ccc(CCCn4ccnc4)cc3)co2)cc1 — lower, 116 to 117 °C
- COc1ccc(C2C(C#N)=C(N)OC3=C2C(=O)CC(c2cccc4ccccc24)C3)cc1 (stereo unspecified) — higher, 194 to 197 °C
- CCCCCCCCCCCCNc1nc(NCC(O)C2CC(C)(C)NC(C)(C)C2)nc(NCC(O)C2CC(C)(C)NC(C)(C)C2)n1 (stereo unspecified) — lower, 107 to 109 °C
- COC(=O)c1nn(-c2ccc(I)cc2F)cc(OC)c1=O — higher, 160 to 162 °C
- NS(=O)(=O)c1ccc(-c2c(-c3ccccc3)noc2Cl)cc1 — higher, 186 to 187 °C
- C=CCc1cc(-c2nc(C)no2)ccc1O — higher, 135 to 137 °C
- O=C(O)CNC(=O)[C@H]1CC[C@H](C(=O)N2CCN(C3CCNCC3)CC2)CC1 — higher, 260 to 270 °C
- CC(C)(C)c1ccc(NC(=O)c2ccc(C3=NCCS3)cc2)cc1 — higher, 176 to 177 °C
- O=C(NCCOc1ccc(CC(Oc2cc(F)c(F)c(F)c2)C(=O)O)cc1)c1ccc(-c2ccccn2)cc1 (stereo unspecified) — higher, 144 to 146 °C
- O=C1NC(=O)C(=Cc2ccc(OC[C@@H]3CCCN3c3ccccn3)cc2)S1 — higher, 164 °C
- O=S1(=O)c2cccc3cccc(c23)N1CCCN1CCC(c2ccccc2)(c2ccccc2)CC1 — higher, 168 °C
- CC(=O)OCc1cccc(Cl)c1NS(=O)(=O)c1nc2nc(C)cc(C)n2n1 — higher, 214 to 217 °C
- Cn1ncnc1COc1ccc2nnc(-c3ccccc3)n2n1 — higher, 254 °C
- Cc1csc(NC(=O)c2cn(-c3ccccc3)c3ccccc3c2=O)n1 — higher, 252 to 254 °C
- CC(C#Cc1ccc(C=Cc2ccc(F)cc2)o1)N(O)C(N)=O (stereo unspecified) — higher, 177 °C
- OCc1csc(-n2cccc2)n1 — lower, 111 to 113 °C
- CC=CC(=O)NCCc1ccc(S(=O)(=O)N2CCN(C3CCCCC3)C2=N)cc1 — higher, 157 to 158 °C
- COc1ccc(-c2n[nH]c(=O)c3cc(OC)ccc23)cc1 — higher, 245 °C
- ON=C(c1cccc(F)c1)c1cccc2nc(N[C@@H]3CCc4ccccc43)ccc12 — higher, 180 °C
- O=S(=O)(Nc1ccccc1OCC1CCN(c2ccncc2)CC1)c1ccc2cc(Br)ccc2c1 — higher, 197 to 200 °C
- NC(=O)c1cnn2c1N(C(=O)CCl)CC=C2c1cccc(C(F)(F)F)c1 — higher, 174 to 176 °C
- C=C1[C@H](CO)[C@H](O)[C@H](O)[C@H]1OCc1ccccc1 — higher, 122 to 124 °C
- [N-]=[N+]=N[C@H]1CC[C@@H](NC(=O)OCc2ccccc2)CC1 — lower, 42 to 46 °C
- COC1=C(OC)C(=O)C(CCCCCCc2ccc(O)cc2)=C(C)C1=O — lower, 87 to 88 °C
- CCCc1nn(-c2ccc(C(F)(F)F)cn2)cc1CCCOc1ccc(CCC(=O)O)cc1OC — higher, 126 to 127 °C
- CC(CCCCCOCCc1ccc(N(C)C)cc1)NCc1c(CO)ccc(O)c1CO (stereo unspecified) — lower, 100 to 101 °C
- CS(=O)(=O)c1ccc(C(CC2CCCC2)C(=O)Nc2nccs2)cc1F (stereo unspecified) — higher, 200 to 202 °C
- CCn1cc(C(=O)O)c(=O)c2cc(F)c(N3Cc4ccc(C(=O)OC)cc4C3)c(F)c21 — higher, 264 to 267 °C
- Fc1cccc(COc2ccc(Nc3ncnc4cc(C#Cc5nccs5)sc34)cc2Cl)c1 — higher, 235 °C
- CS(=O)(=O)Nc1cc2oc(Br)c(NC=O)c(=O)c2cc1Oc1ccccc1 — higher, 237 to 238 °C
- COCOc1cc(CBr)c2nc3cccc(OCOC)c3nc2c1 — higher, 167 to 168 °C
- COC(=O)c1ccc2c(c1)C(=O)CCC2 — higher, 170 to 172 °C
- CC(C)(C)NC(=O)c1nn(-c2ccc(F)cc2F)c2c1C1CC3CC(C1)CC2C3 — higher, 188 to 190 °C
- CON=Cc1cc(Cl)cc(Cl)c1 — lower, 53 °C
- CC(C(=O)C=CC1C(OC(=O)c2ccccc2)CC2OC(=O)CC21)C1C=CCC1 (mixture of isomers) — lower, 85 to 87.5 °C
- Cc1cc(Cl)c2[nH]nc(-c3ccc(Cl)cc3)c2n1 — higher, 243 to 245 °C
- Cc1c(NC(=O)c2cc3c(s2)C(=O)CCC3)cccc1-c1cn(C)c(=O)c(Nc2ccc(C3C(=O)N(C)CCN3C)cc2)n1 (stereo unspecified) — higher, 154 to 155 °C
- c1cc(-c2csc(Cc3ncc[nH]3)n2)ccn1 — higher, 178 to 180 °C
- Cc1ncc(CN2CCc3cc(-c4ccccc4)ccc3C2)c(N)n1 — higher, 186 to 188 °C
- CC(CCCC(O)(C(F)(F)F)C(F)(F)F)C1CCC2C3CC=C4CC(O)CC(O)C4(C)C3CCC12C (stereo unspecified) — higher, 201 to 202 °C
- O=C1N(c2cc(Cl)cc(Cl)c2)C(=O)C2(Cc3ccc(Br)cc3)CCC(c3ccccc3)N12 (stereo unspecified) — lower, 72.4 °C
- COc1cc(C(=O)NS(=O)(=O)c2ccccc2C)ccc1Cc1cn(C(C)C)c2ccc(CCCC(=O)N(C)C)cc12 — lower, 60 °C
- CCCNC(=O)NNC=NC(=O)c1nc(Cl)c(N)nc1N — higher, 220 to 221 °C
- O=C(O)c1nc(I)c2cc(Cc3ccc(F)cc3)cnc2c1OCc1ccccc1 — higher, 132 to 134 °C
- COc1ccc(CSc2ccc([N+](=O)[O-])cc2CBr)cc1 — lower, 98 to 99 °C
- CCc1noc(CC(=O)N(C)c2ccccc2)n1 — lower, 53 °C
- COc1ccccc1C(=O)c1cccc([N+](=O)[O-])c1 — lower, 94 °C
- COc1cc([N+](=O)[O-])c(N)cc1C(=O)O — higher, 252 to 255 °C
- C#CCOc1ccc2c(c1)c(-c1ccc(C(C)C)cc1)nc(=O)n2Cc1cccc(N2CCCC2=O)c1 — lower, 68 to 69 °C
- Cc1ccc(C(=O)C2=C(O)C(=O)N(c3ccc(C)nn3)C2c2ccc(OC(F)(F)F)cc2)cc1 (stereo unspecified) — higher, 215 °C
- CCOC(=O)C1(C(=O)OCC)CCC=C2C1CCC1=Cc3c(cnn3-c3ccc(F)cc3)CC12C (stereo unspecified) — higher, 133 to 135 °C
- Cc1oc(C=Cc2cccc(Cl)c2)nc1CO — higher, 147 to 148 °C
- O=S1(=O)NC(C2CCCCC2)Nc2ccc(S(=O)(=O)N3CCCC3)cc21 (stereo unspecified) — higher, 244 to 246 °C
- CCOc1cc2cc(C(=O)OC)c(C(=O)OC)c(-c3ccnc(Cl)c3)c2cc1OC — higher, 205 to 208 °C
- CC(C)(O)C1CCN(Cc2ccccc2)CC1 — lower, 66 °C
- CC(C)(C)C(=O)OC1C(c2ccccc2)=C(c2ccc(S(C)(=O)=O)cc2)C1(C)C (stereo unspecified) — lower, 66 to 67 °C
- CCOc1cscc1C(=O)Nc1cc(Cl)ccc1SSc1ccc(Cl)cc1NC(=O)c1cscc1OCC — higher, 179 to 181 °C
- O=C(CC1=C(n2nc(-c3c(-c4ccccc4)nn4ccccc34)ccc2=O)CCCC1)N1CCCCC1 — higher, 184 to 185 °C
- CCOC(=O)C1=C(C)N=C(SCc2ccc(OC)cc2)N(C(=O)OC(C)C)C1c1cccc(Cl)c1Cl (stereo unspecified) — lower, 97 to 99 °C
- CC(O)c1ccc(F)c(-c2ccc3nc(-c4ccc(Cl)cc4)cn3c2)c1 (stereo unspecified) — higher, 180 to 182 °C
- COc1ccccc1N1CCN(C(=O)NCCN(C)C)CC1 — lower, 98 to 100 °C
- O=c1c(-c2ccccc2)c(Cn2cnc3ccccc32)oc2ccccc12 — higher, 186 to 191 °C
- CC(C)C(C)(C#N)N1C(=O)c2ccc3ccsc3c2C1=O (stereo unspecified) — lower, 99 to 107 °C
